Reference: PubChem BioAssay AID1963844 (Molecular Pharmacology Branch, DTP, NCI, 2024)

Tested on: 422866-222-R5-J1-PDC complex spheroid viability
Experiment: Anticancer human tumor 422866-222-R5-J1-PDC patient-derived pancreatic adenocarcinoma cell line growth inhibition [POLQ]
Conditions: for IC50: curve of first compound; for viability, T/C: stronger effect = lower value
Summary of the method: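 Complex spheroid viability model combining PDC tumour cells with endothelial (HUVEC) and MSC stromal cells. Novobiocin, ART-558 or RP6685 were tested singly and in combination with standard and investigational anticancer drugs. Each was titrated in half-log steps from near clinical Cmax, or from 10 microM where Cmax was unknown.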

[1] = second compound 0.0316 µM, first compound 0.0316 µM
[2] = second compound 0.0316 µM, first compound 0.1 µM
[3] = second compound 0.0316 µM, first compound 0.316 µM
[4] = second compound 0.0316 µM, first compound 1 µM
[5] = second compound 0.0316 µM, first compound 3.16 µM
[6] = second compound 0.0316 µM, first compound 10 µM
[7] = second compound 0.1 µM, first compound 0.0316 µM
[8] = second compound 0.1 µM, first compound 0.1 µM
[9] = second compound 0.1 µM, first compound 0.316 µM
[10] = second compound 0.1 µM, first compound 1 µM
[11] = second compound 0.1 µM, first compound 3.16 µM
[12] = second compound 0.1 µM, first compound 10 µM
[13] = second compound 0.316 µM, first compound 0.0316 µM
[14] = second compound 0.316 µM, first compound 0.1 µM
[15] = second compound 0.316 µM, first compound 0.316 µM
[16] = second compound 0.316 µM, first compound 1 µM
[17] = second compound 0.316 µM, first compound 3.16 µM
[18] = second compound 0.316 µM, first compound 10 µM
[19] = second compound 1 µM, first compound 0.0316 µM
[20] = second compound 1 µM, first compound 0.1 µM
[21] = second compound 1 µM, first compound 0.316 µM
[22] = second compound 1 µM, first compound 1 µM
[23] = second compound 1 µM, first compound 3.16 µM
[24] = second compound 1 µM, first compound 10 µM
[25] = second compound 3.16 µM, first compound 0.0316 µM
[26] = second compound 3.16 µM, first compound 0.1 µM
[27] = second compound 3.16 µM, first compound 0.316 µM
[28] = second compound 3.16 µM, first compound 1 µM
[29] = second compound 3.16 µM, first compound 3.16 µM
[30] = second compound 3.16 µM, first compound 10 µM
[31] = second compound 10 µM, first compound 0.0316 µM
[32] = second compound 10 µM, first compound 0.1 µM
[33] = second compound 10 µM, first compound 0.316 µM
[34] = second compound 10 µM, first compound 1 µM
[35] = second compound 10 µM, first compound 3.16 µM
[36] = second compound 10 µM, first compound 10 µM
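Note: spheroids exposed to compounds for one week before readout.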
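Throughout, for viability, T/C: percent of DMSO vehicle wells luminescence so 100% = untreated viability.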

Question: For `COc1cc2cc(C(=O)CCC(=O)O)sc2cc1OC` + Cc1cccc(N(C)C(=O)C2C(O)CCN2c2nc(C)cc(C(F)(F)F)c2C#N)c1, which IC50 (second compound 0.0316 µM) is on record?
Answer: > 10 µM

Question: What about the IC50 (second compound 0.1 µM) of the same compound?
Answer: > 10 µM

Question: What about the IC50 (second compound 0.316 µM) of the same compound?
Answer: > 10 µM

Question: And the IC50 (second compound 1 µM)?
Answer: > 10 µM

Question: And the IC50 (second compound 3.16 µM)?
Answer: > 10 µM

Question: And the IC50 (second compound 10 µM)?
Answer: > 10 µM

Question: And the viability, T/C [1]?
Answer: 95.6%

Question: And the viability, T/C [2]?
Answer: 106%

Question: What about the viability, T/C [3] of the same compound?
Answer: 98.6%

Question: What about the viability, T/C [4] of the same compound?
Answer: 90.5%

Question: What about the viability, T/C [5] of the same compound?
Answer: 85.4%

Question: What about the viability, T/C [6] of the same compound?
Answer: 103%

Question: And the viability, T/C [7]?
Answer: 101%

Question: And the viability, T/C [8]?
Answer: 91.1%

Question: And the viability, T/C [9]?
Answer: 82.6%

Question: What about the viability, T/C [10] of the same compound?
Answer: 101%

Question: What about the viability, T/C [11] of the same compound?
Answer: 75.5%

Question: What about the viability, T/C [12] of the same compound?
Answer: 121%

Question: What about the viability, T/C [13] of the same compound?
Answer: 116%

Question: And the viability, T/C [14]?
Answer: 90.3%

Question: And the viability, T/C [15]?
Answer: 91.8%

Question: What about the viability, T/C [16] of the same compound?
Answer: 93.4%

Question: And the viability, T/C [17]?
Answer: 93.7%

Question: And the viability, T/C [18]?
Answer: 116%

Question: And the viability, T/C [19]?
Answer: 94.9%

Question: What about the viability, T/C [20] of the same compound?
Answer: 113%

Question: And the viability, T/C [21]?
Answer: 98.2%

Question: What about the viability, T/C [22] of the same compound?
Answer: 80.3%

Question: What about the viability, T/C [23] of the same compound?
Answer: 87.9%

Question: And the viability, T/C [24]?
Answer: 117%

Question: What about the viability, T/C [25] of the same compound?
Answer: 107%

Question: And the viability, T/C [26]?
Answer: 101%

Question: And the viability, T/C [27]?
Answer: 109%

Question: And the viability, T/C [28]?
Answer: 93.1%

Question: And the viability, T/C [29]?
Answer: 85.7%

Question: What about the viability, T/C [30] of the same compound?
Answer: 121%

Question: And the viability, T/C [31]?
Answer: 88.6%

Question: And the viability, T/C [32]?
Answer: 93%

Question: What about the viability, T/C [33] of the same compound?
Answer: 103%

Question: What about the viability, T/C [34] of the same compound?
Answer: 75.2%

Question: What about the viability, T/C [35] of the same compound?
Answer: 79.6%

Question: What about the viability, T/C [36] of the same compound?
Answer: 112%

Question: How did the IC50 (second compound 0.0316 µM) turn out when `O=c1[nH]cc(F)c(=O)[nH]1` + Cc1cccc(N(C)C(=O)C2C(O)CCN2c2nc(C)cc(C(F)(F)F)c2C#N)c1 was run?
Answer: > 10 µM

Question: And the IC50 (second compound 0.1 µM)?
Answer: > 10 µM

Question: And the IC50 (second compound 0.316 µM)?
Answer: > 10 µM

Question: And the IC50 (second compound 1 µM)?
Answer: > 10 µM

Question: And the IC50 (second compound 3.16 µM)?
Answer: > 10 µM

Question: What about the IC50 (second compound 10 µM) of the same compound?
Answer: > 10 µM

Question: And the viability, T/C [1]?
Answer: 117%

Question: And the viability, T/C [2]?
Answer: 98.5%

Question: And the viability, T/C [3]?
Answer: 102%

Question: What about the viability, T/C [4] of the same compound?
Answer: 88.2%

Question: And the viability, T/C [5]?
Answer: 82.1%

Question: And the viability, T/C [6]?
Answer: 74.9%

Question: What about the viability, T/C [7] of the same compound?
Answer: 111%

Question: And the viability, T/C [8]?
Answer: 92.2%

Question: And the viability, T/C [9]?
Answer: 92.3%

Question: What about the viability, T/C [10] of the same compound?
Answer: 90.8%

Question: What about the viability, T/C [11] of the same compound?
Answer: 66.9%

Question: And the viability, T/C [12]?
Answer: 74.3%

Question: What about the viability, T/C [13] of the same compound?
Answer: 118%

Question: And the viability, T/C [14]?
Answer: 109%

Question: What about the viability, T/C [15] of the same compound?
Answer: 99.9%

Question: And the viability, T/C [16]?
Answer: 84.3%

Question: And the viability, T/C [17]?
Answer: 81.1%

Question: And the viability, T/C [18]?
Answer: 78.2%

Question: And the viability, T/C [19]?
Answer: 111%

Question: What about the viability, T/C [20] of the same compound?
Answer: 96.6%

Question: What about the viability, T/C [21] of the same compound?
Answer: 97.9%

Question: What about the viability, T/C [22] of the same compound?
Answer: 101%

Question: What about the viability, T/C [23] of the same compound?
Answer: 84.8%

Question: And the viability, T/C [24]?
Answer: 83.2%

Question: And the viability, T/C [25]?
Answer: 107%

Question: What about the viability, T/C [26] of the same compound?
Answer: 98.6%

Question: What about the viability, T/C [27] of the same compound?
Answer: 86.3%

Question: And the viability, T/C [28]?
Answer: 83%

Question: What about the viability, T/C [29] of the same compound?
Answer: 83.8%

Question: What about the viability, T/C [30] of the same compound?
Answer: 87.6%

Question: And the viability, T/C [31]?
Answer: 90.6%

Question: What about the viability, T/C [32] of the same compound?
Answer: 88.8%

Question: And the viability, T/C [33]?
Answer: 99.7%

Question: And the viability, T/C [34]?
Answer: 80.6%

Question: What about the viability, T/C [35] of the same compound?
Answer: 86.7%

Question: What about the viability, T/C [36] of the same compound?
Answer: 67.8%

Question: Which results are given for `Nc1ccn(C2OC(CO)C(O)C2(F)F)c(=O)n1` (stereo unspecified) + Nc1ccc(C#CCN(C(=O)Cc2ncc(C(F)(F)F)cc2C(F)(F)F)c2ccc(F)cc2)nn1?
Answer: IC50 (second compound 0.0316 µM): < 0.0316 µM; IC50 (second compound 0.1 µM): 0.0552 µM; IC50 (second compound 0.316 µM): 0.0726 µM; IC50 (second compound 1 µM): 0.0715 µM; IC50 (second compound 3.16 µM): 0.118 µM; IC50 (second compound 10 µM): 0.539 µM; viability, T/C [1]: 57.9%; viability, T/C [2]: 42.5%; viability, T/C [3]: 28.7%; viability, T/C [4]: 38.4%; viability, T/C [5]: 36.9%; viability, T/C [6]: 39.2%; viability, T/C [7]: 62.2%; viability, T/C [8]: 37.7%; viability, T/C [9]: 30.6%; viability, T/C [10]: 32.4%; viability, T/C [11]: 38.1%; viability, T/C [12]: 36.4%; viability, T/C [13]: 66.8%; viability, T/C [14]: 43.5%; viability, T/C [15]: 30.4%; viability, T/C [16]: 40.1%; viability, T/C [17]: 33.2%; viability, T/C [18]: 34.4%; viability, T/C [19]: 75%; viability, T/C [20]: 39.8%; viability, T/C [21]: 36.8%; viability, T/C [22]: 34.3%; viability, T/C [23]: 36.1%; viability, T/C [24]: 49%; viability, T/C [25]: 72.8%; viability, T/C [26]: 52.5%; viability, T/C [27]: 35.3%; viability, T/C [28]: 31.8%; viability, T/C [29]: 34.1%; viability, T/C [30]: 41%; viability, T/C [31]: 98.8%; viability, T/C [32]: 67.9%; viability, T/C [33]: 68.8%; viability, T/C [34]: 34.8%; viability, T/C [35]: 31.7%; viability, T/C [36]: 30.6%
